Results on 47 compounds are retold here after patent publication US7338950B2, “Amide compounds as ion channel ligands and uses thereof” (Renovis, Inc., priority 2003, dated 2008).

The subject of the test is VR1 receptor (293 cells expressing capsaicin-insensitive VR1 receptor variants). Nature of the test: High throughput screening of VR1 antagonists using a calcium imaging assay (Fura2, pH 5.1 stimulus).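 Also: Fura2 ratiometric fluorescence read every 4 s over 3 min, response taken as peak ratio minus baseline before pre-treatment, compound pre-treatment preceding acid challenge.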 As to conditions: 1 uM compound; inhibition of calcium ion influx.
On to `N#Cc1cccc(NC(=O)c2ccc(-c3ncccc3Cl)c(F)c2)c1` [Compound 1141], for which the “% Inhibition @ 1 uM” value is “++++ (compound exhibited 75% or greater inhibition of calcium ion influx induced by capsaicin stimulation)”. Next, `CC(C)(C)c1ccc(NC(=O)c2ccc(-c3ncccc3Cl)c(F)c2)cc1` [Compound 1142]: “++++ (compound exhibited 75% or greater inhibition of calcium ion influx induced by capsaicin stimulation)”. Next, `CCCCc1ccc(NC(=O)c2ccc(-c3ncccc3Cl)c(F)c2)cc1` [Compound 1144]: “++++ (compound exhibited 75% or greater inhibition of calcium ion influx induced by capsaicin stimulation)”; `Cc1ccc(NC(=O)c2ccc(-c3ncccc3Cl)c(F)c2)c(C)c1` [Compound 1145]: “++++ (compound exhibited 75% or greater inhibition of calcium ion influx induced by capsaicin stimulation)”; `O=C(Nc1ccc(F)cc1[N+](=O)[O-])c1ccc(-c2ncccc2Cl)c(F)c1` [Compound 1149]: “++++ (compound exhibited 75% or greater inhibition of calcium ion influx induced by capsaicin stimulation)”. Regarding `COc1ccc(NC(=O)c2ccc(-c3ncccc3Cl)c(F)c2)cc1Cl` [Compound 1151], the “% Inhibition @ 1 uM” value was “++++ (compound exhibited 75% or greater inhibition of calcium ion influx induced by capsaicin stimulation)”. The entry for `O=C(Nc1ccc(C(F)(F)F)cc1)c1ccc(-c2ncccc2Cl)c(F)c1` [Compound 1152] is “++ (compound exhibited 25-50% inhibition of calcium ion influx induced by capsaicin stimulation)”; for `Cc1cc(C)nc(NC(=O)c2ccc(-c3ncccc3Cl)c(F)c2)c1` [Compound 1156] it is “+ (compound exhibited 0-25% inhibition of calcium ion influx induced by capsaicin stimulation)”; for `O=C(Nc1ccncc1)c1ccc(-c2ncccc2Cl)c(F)c1` [Compound 1157] it is “++++ (compound exhibited 75% or greater inhibition of calcium ion influx induced by capsaicin stimulation)”.

For the compound `Cc1ccnc(NC(=O)c2ccc(-c3ncccc3Cl)c(F)c2)c1` [Compound 1162], the “% Inhibition @ 1 uM” value was “++++ (compound exhibited 75% or greater inhibition of calcium ion influx induced by capsaicin stimulation)”.

With `O=C(Nc1ccc(C(F)(F)F)cn1)c1ccc(-c2ncccc2Cl)c(F)c1` [Compound 1166], the “% Inhibition @ 1 uM” value is listed as “++ (compound exhibited 25-50% inhibition of calcium ion influx induced by capsaicin stimulation)”. Next, `O=C(Nc1ccc(Cl)nc1)c1ccc(-c2ncccc2Cl)c(F)c1` [Compound 1169]: “+ (compound exhibited 0-25% inhibition of calcium ion influx induced by capsaicin stimulation)”; `COc1ccc(NC(=O)c2ccc(-c3ncccc3Cl)c(F)c2)cn1` [Compound 1170]: “++ (compound exhibited 25-50% inhibition of calcium ion influx induced by capsaicin stimulation)”. On to `O=C(Nc1ccc2ncccc2c1)c1ccc(-c2ncccc2Cl)c(F)c1` [Compound 1173], for which the “% Inhibition @ 1 uM” value is “++++ (compound exhibited 75% or greater inhibition of calcium ion influx induced by capsaicin stimulation)”. The entry for `O=C(Nc1cc[nH]n1)c1ccc(-c2ncccc2Cl)c(F)c1` [Compound 1175] is “+ (compound exhibited 0-25% inhibition of calcium ion influx induced by capsaicin stimulation)”.

`O=C(Nc1ccc2ccccc2c1)c1ccc(-c2ncccc2Cl)c(F)c1` [Compound 1177]: the “% Inhibition @ 1 uM” value is reported as “++++ (compound exhibited 75% or greater inhibition of calcium ion influx induced by capsaicin stimulation)”. The entry for `O=C(O)c1cccc(NC(=O)c2ccc(-c3ncccc3Cl)c(F)c2)c1` [Compound 1182] is “+ (compound exhibited 0-25% inhibition of calcium ion influx induced by capsaicin stimulation)”; for `O=C(Nc1ccc(Cl)c(C(=O)O)c1)c1ccc(-c2ncccc2Cl)c(F)c1` [Compound 1183] it is “++++ (compound exhibited 75% or greater inhibition of calcium ion influx induced by capsaicin stimulation)”; for `COc1ccc(NC(=O)c2ccc(-c3ncccc3Cl)c(F)c2)cc1O` [Compound 1187] it is “++ (compound exhibited 25-50% inhibition of calcium ion influx induced by capsaicin stimulation)”. The entry for `O=C(Nc1ccc2cn[nH]c2c1)c1ccc(-c2ncccc2Cl)c(F)c1` [Compound 1189] is “+++ (compound exhibited 50-75% inhibition of calcium ion influx induced by capsaicin stimulation)”.

On to `CCCOc1ccc(NC(=O)c2ccc(-c3ncccc3Cl)c(F)c2)cc1` [Compound 1190], for which the “% Inhibition @ 1 uM” value is on record as “++ (compound exhibited 25-50% inhibition of calcium ion influx induced by capsaicin stimulation)”.

As for `O=C(Nc1ccc(OC(F)(F)F)cc1)c1ccc(-c2ncccc2Cl)c(F)c1` [Compound 1192], the “% Inhibition @ 1 uM” value is listed as “++ (compound exhibited 25-50% inhibition of calcium ion influx induced by capsaicin stimulation)”.

As for `O=C(Nc1cccc(OC(F)(F)F)c1)c1ccc(-c2ncccc2Cl)c(F)c1` [Compound 1193], the “% Inhibition @ 1 uM” value is given as “+ (compound exhibited 0-25% inhibition of calcium ion influx induced by capsaicin stimulation)”.

In the case of `CC(C)Oc1cccc(NC(=O)c2ccc(-c3ncccc3Cl)c(F)c2)c1` [Compound 1194], the “% Inhibition @ 1 uM” value is on record as “+ (compound exhibited 0-25% inhibition of calcium ion influx induced by capsaicin stimulation)”. Take `O=C(Nc1ccc(F)c(F)c1)c1ccc(-c2ncccc2Cl)c(F)c1` [Compound 1195]: the “% Inhibition @ 1 uM” value was “+++ (compound exhibited 50-75% inhibition of calcium ion influx induced by capsaicin stimulation)”. Consider `O=C(Nc1ccc(N2CCOCC2)c(Cl)c1)c1ccc(-c2ncccc2Cl)c(F)c1` [Compound 1200], for which the “% Inhibition @ 1 uM” value was “++++ (compound exhibited 75% or greater inhibition of calcium ion influx induced by capsaicin stimulation)”. Regarding `CN1CCCc2ccc(NC(=O)c3ccc(-c4ncccc4Cl)c(F)c3)cc21` [Compound 1203], the “% Inhibition @ 1 uM” value is recorded as “+ (compound exhibited 0-25% inhibition of calcium ion influx induced by capsaicin stimulation)”. The entry for `COc1cc(C(=O)NC(C)(C)C)ccc1-c1ncccc1Cl` [Compound 1204] is “+ (compound exhibited 0-25% inhibition of calcium ion influx induced by capsaicin stimulation)”. In the case of `COc1cc(C(=O)Nc2ccccc2)ccc1-c1ncccc1Cl` [Compound 1206], the “% Inhibition @ 1 uM” value was “+ (compound exhibited 0-25% inhibition of calcium ion influx induced by capsaicin stimulation)”. Next, `COc1ccc(NC(=O)c2ccc(-c3ncccc3Cl)c(OC)c2)cc1` [Compound 1207]: “+ (compound exhibited 0-25% inhibition of calcium ion influx induced by capsaicin stimulation)”; `COc1cc(C(=O)Nc2ccccc2C#N)ccc1-c1ncccc1Cl` [Compound 1209]: “+ (compound exhibited 0-25% inhibition of calcium ion influx induced by capsaicin stimulation)”. The entry for `COc1cc(C(=O)Nc2cccc(Cl)c2)ccc1-c1ncccc1Cl` [Compound 1210] is “+ (compound exhibited 0-25% inhibition of calcium ion influx induced by capsaicin stimulation)”. Turning to `COc1ccccc1NC(=O)c1ccc(-c2ncccc2Cl)c(OC)c1` [Compound 1211], the “% Inhibition @ 1 uM” value is “++ (compound exhibited 25-50% inhibition of calcium ion influx induced by capsaicin stimulation)”.

Turning to `CCCc1ccccc1NC(=O)c1ccc(-c2ncccc2Cl)c(OC)c1` [Compound 1212], the “% Inhibition @ 1 uM” value was “++ (compound exhibited 25-50% inhibition of calcium ion influx induced by capsaicin stimulation)”.

With `COc1cccc(NC(=O)c2ccc(-c3ncccc3Cl)c(OC)c2)c1` [Compound 1213], the “% Inhibition @ 1 uM” value is “++ (compound exhibited 25-50% inhibition of calcium ion influx induced by capsaicin stimulation)”. The entry for `COc1cc(C(=O)Nc2cccc(Cl)c2Cl)ccc1-c1ncccc1Cl` [Compound 1216] is “++++ (compound exhibited 75% or greater inhibition of calcium ion influx induced by capsaicin stimulation)”; for `COc1cc(C(=O)Nc2cccc(C#N)c2)ccc1-c1ncccc1Cl` [Compound 1218] it is “++++ (compound exhibited 75% or greater inhibition of calcium ion influx induced by capsaicin stimulation)”; for `CCCCc1ccc(NC(=O)c2ccc(-c3ncccc3Cl)c(OC)c2)cc1` [Compound 1221] it is “++ (compound exhibited 25-50% inhibition of calcium ion influx induced by capsaicin stimulation)”. Next, `COc1cc(C(=O)Nc2ccc(C)cc2C)ccc1-c1ncccc1Cl` [Compound 1223]: “++++ (compound exhibited 75% or greater inhibition of calcium ion influx induced by capsaicin stimulation)”.

On to `COc1cc(C(=O)Nc2ccc(F)cc2[N+](=O)[O-])ccc1-c1ncccc1Cl` [Compound 1227], for which the “% Inhibition @ 1 uM” value was “++++ (compound exhibited 75% or greater inhibition of calcium ion influx induced by capsaicin stimulation)”. Next, `COc1ccc(NC(=O)c2ccc(-c3ncccc3Cl)c(OC)c2)cc1Cl` [Compound 1229]: “+++ (compound exhibited 50-75% inhibition of calcium ion influx induced by capsaicin stimulation)”; `COc1cc(C(=O)Nc2ccc(C(F)(F)F)cc2)ccc1-c1ncccc1Cl` [Compound 1230]: “++ (compound exhibited 25-50% inhibition of calcium ion influx induced by capsaicin stimulation)”. Next, `COc1cc(C(=O)Nc2ccc(Cl)c(C(F)(F)F)c2)ccc1-c1ncccc1Cl` [Compound 1231]: “+ (compound exhibited 0-25% inhibition of calcium ion influx induced by capsaicin stimulation)”. The entry for `COc1cc(C(=O)Nc2cc(C)cc(C)n2)ccc1-c1ncccc1Cl` [Compound 1234] is “+ (compound exhibited 0-25% inhibition of calcium ion influx induced by capsaicin stimulation)”; for `COc1cc(C(=O)Nc2ccncc2)ccc1-c1ncccc1Cl` [Compound 1235] it is “++++ (compound exhibited 75% or greater inhibition of calcium ion influx induced by capsaicin stimulation)”. With `COc1cc(C(=O)Nc2cccnc2)ccc1-c1ncccc1Cl` [Compound 1236], the “% Inhibition @ 1 uM” value was “+ (compound exhibited 0-25% inhibition of calcium ion influx induced by capsaicin stimulation)”. The entry for `COc1cc(C(=O)Nc2cc(C)ccn2)ccc1-c1ncccc1Cl` [Compound 1240] is “++++ (compound exhibited 75% or greater inhibition of calcium ion influx induced by capsaicin stimulation)”.
